This is an account of results in PMC9055250, “Design, synthesis, and biological evaluation of new 6,N^2-diaryl-1,3,5-triazine-2,4-diamines as anticancer agents selectively targeting triple negative breast cancer cells” (RSC Advances, 2020).

The subject of data set [1] is MDA-MB231 breast cancer cells. In words: MTT in vitro cytotoxicity assay, MDA-MB231. The data set is classed as cell-based. The conditions noted are these: for viability at 10 µM / GI50: Homo sapiens, MDA-MB-231; for viability at 10 µM: read-out: Cell viability (%) MDA-MB231. As to the method:
(§1) The synthesized compounds were tested against three breast tumor cell lines (MDA-MB231, SKBR-3 and MCF-7) and epithelial breast cell line (MCF-10A) by the MTT colorimetric assay.[29,30] All cells were obtained from the American Type Culture Collection. The cancerous cell lines were grown in Dulbecco's modified eagle medium (DMEM) supplemented with 10% fetal bovine serum (FBS) and 1% pen-strep antibiotic. The MCF-10A human epithelial breast cell line was grown in the complete mammary epithelial growth medium containing horse serum 5%, epithelial growth factor 20 ng mL^−1, hydrocortisone […], cholera toxin 100 ng mL^−1, insulin 10 μg mL^−1, and pen-step antibiotic.[31] For the cytotoxic assay, 20 to 75 × 10^3 cells per mL (based on the doubling time for each cell line) were seeded in 96-well plates and the plates were incubated overnight in a humidified air atmosphere at 37 °C in 5% CO2 incubator.
(§2) The cells were then treated with compounds at different concentrations. After 72 h of incubation, the MTT (0.5 mg mL^−1) was added to wells, followed by 4 h of incubation. The culture medium was then removed and DMSO (100 μL per well) was added and the absorbance values were measured at 570 nm using the multi-well Tecan NanoQuant, Infinite m200 Pro plate reader. Growth inhibitory values (GI50) were calculated using GraphPad Prism 7 (GraphPad Software, San Diego, USA) by nonlinear regression analysis. Three independent experiments were carried out and the data was expressed in mean ± standard deviation (SD). The concentration–response curves used for the GI50 calculation are available in ESI. ^†

Data set [2] has as its system SKBR-3 breast cancer cells. As to the kind of experiment: MTT in vitro cytotoxicity assay, SKBR-3. In kind it is cell-based. The conditions noted are these: Homo sapiens; for viability at 10 µM: SK-BR-3, 10 μM, 72 h, read-out: Cell viability (%) SKBR-3; for GI50: SK-BR-3, 72 h, read-out: GI50 ± SD SKBR-3. Here is the method:
as §1, §2

Data set [3] concerns MCF-7 breast cancer cells. In words: MTT in vitro cytotoxicity assay, MCF-7. In kind it is cell-based. The conditions noted are these: Homo sapiens; for viability at 10 µM: MCF7, 10 μM, 72 h, read-out: Cell viability (%) MCF-7; for GI50: MCF7, 72 h, read-out: GI50 ± SD MCF-7. Here is the method: as §1, §2
Data set [4] has as its system MCF-10A human epithelial breast cell line. As to the kind of experiment: MTT in vitro cytotoxicity assay, MCF-10A. In kind it is cell-based. The conditions noted are these: 72 h, read-out: GI50 ± SD MCF-10A. Here is the method: as §1, §2
Data set [5] concerns MDA-MB231 breast cancer cells. As to the kind of experiment: Time-dependent cytotoxicity (MTT). In kind it is cell-based. The conditions noted are these: for inhibition at 0.125 µM / growth inhibition at 125 nM, 12 h: MDA-MB231, 125 nM. Here is the method: MDA-MB231 breast cancer cells were grown in DMEM supplemented with 10% FBS and 1% pen-strep antibiotic. The cells were seeded in 96-well plates (20 × 10^3 cells per mL) and the plates were incubated overnight in a humidified air atmosphere at 37 °C in 5% CO2 incubator. The cells were then treated with compounds 16 or 18 in concentrations ranging from 0.2 nM to 125 nM for 12, 24, 48, and 72 h. After specified time for each experiment, MTT (0.5 mg mL^−1) was added to wells, followed by 4 h of incubation. The culture medium was then removed and DMSO (100 μL per well) was added and the absorbance values were measured at 570 nm using the multi-well Tecan NanoQuant, Infinite m200 Pro plate reader. GI50 values were calculated using GraphPad Prism 7 (GraphPad Software, San Diego, USA) by nonlinear regression analysis. All the time-dependent experiments at different times were carried out using the same passage of MDA-MB231 cells. Three independent experiments were carried out and the data were expressed in mean ± standard deviation (SD).

Data set [6] deals with MDA-MB231 cells. As to the kind of experiment: Acridine orange/propidium iodide double staining, fluorescence microscopy. To be noted: MDA-MB231, 24 h after treatment; 16 at 125 and 250 nM, 18 at 2.5 and 5 nM. The data set is classed as cell-based. Here is the method:
Fluorescence microscopy was used to visualize the apoptosis in cancer cells with AO/PI staining.[20] MDA-MB231 cells were grown in 6-well plate (5 × 10^5 cells per well). […] One of the six wells was treated with 1% DMSO and served as a negative control, another well treated with methotrexate served as a positive control. After 24 h of incubation, the wells were washed with phosphate buffered saline (PBS) three times and 100 μL of AO (100 μg mL^−1 in PBS) and 25 μL of PI (100 μg mL^−1 in PBS) in 1 mL of media were added to each well. The plate was then observed under a motorized inverted fluorescent microscope (Eclipse Ti2-E, Nikon). Three independent experiments at each concentration were carried out.

Data set [7] has as its system MDA-MB231 cells. As to the kind of experiment: Live cell imaging with AO/PI. In kind it is cell-based. The conditions noted are these: MDA-MB231, 10 μM, 4 h. As to the method:
MDA-MB231 cells (1 × 10^6 cells) were seeded in a Petri dish and incubated overnight in a humidified air atmosphere at 37 °C in 5% CO2 incubator. Then, the Petri dish was washed with PBS three times and 300 μL of AO (100 μg mL^−1 in PBS) and 75 μL of PI (100 μg mL^−1 in PBS) in 3 mL of media were added to the Petri dish. The cells were treated with 10 μM of compound 18 and the dish was then transferred to motorized inverted fluorescent microscope (Eclipse Ti2-E, Nikon). The pictures were taken every 10 minutes for 4 h and intercalated into video (see ESI ^†).

Where [8] appears, read: 72 h, MTT, read-out: GI50 ± SD MDA-MB231.
The mark [9] stands for this setting: MDA-MB231, calculated from GI50, read-out: Experimental pGI50 (converted).
Setting [10] is: Homo sapiens, MDA-MB-231, 12 h, read-out: growth inhibition at 125 nM, 12 h.
Setting [11] is: Homo sapiens, MDA-MB-231, MDA-MB231, 72 h, read-out: GI50 ± SD, 72 h.
[12] abbreviates: Homo sapiens, MDA-MB-231, MDA-MB231, 24 h, concentration used in Fig. 3.

Like-named read-outs stand apart in the source and are kept apart here. Bounds are passed on as bounds.

The term viability denotes the share of living cells, or the viability signal relative to a control. What is called inhibition is the drop in the measured response relative to a control, in per cent. What is called melting point is the temperature of the solid-liquid transition. The compound `COc1cc(-c2nc(N)nc(Nc3ccc(Cl)cc3)n2)cc(OC)c1OC` [Compound 16, N ^2-(4-Chlorophenyl)-6-(3,4,5-trimethoxyphenyl)-1,3,5-triazine-2,4-diamine] yielded a melting point of 209 to 211 °C. In data set [1] (72 h, MTT), the viability at 10 µM stood at 20%. In addition, the GI50 in data set [1] (setting [8]) turned out to be 7 ± 0.01 nM. The GI50 in data set [1] (setting [9]) was 7.08 nM. Moreover, in data set [2], the viability at 10 µM was 48% and the GI50 came out at 300 ± 40 nM. In data set [3], the viability at 10 µM was 52% and the GI50 turned out to be 12500 ± 200 nM. Besides, the GI50 in data set [4] was above 20000 nM. Besides, the inhibition at 0.125 µM in data set [5] (setting [10]) stood at 17%. For the same compound, the inhibition at 0.125 µM in data set [5] (Homo sapiens, MDA-MB-231, 24 h, read-out: growth inhibition at 125 nM, 24 h) is 61%. For the same compound, in data set [5] (Homo sapiens, MDA-MB-231, 48 h, read-out: growth inhibition at 125 nM, 48 h), the inhibition at 0.125 µM worked out at 75%. In data set [5] (setting [11]), the GI50 came to 7 ± 0.6 nM. For the same compound, the “growth inhibition at 125 nM, 12 h” value in data set [5] (12 h) was “no significant inhibition of the cell growth”. In addition, the “cell morphology, AO/PI double staining” value in the data set on MDA-MB231 cells [6] is reported as “signs of apoptosis”.
By IC20 is commonly meant the point of the concentration-response curve where the effect stands at 20%. In general, IC50 refers to the concentration needed to halve the response being measured. Read a high IC50 as lower potency. Take `COc1cc(-c2nc(N)nc(Nc3ccc(C)cc3)n2)cc(OC)c1OC` [Compound 18, N ^2-(4-Methylphenyl)-6-(3,4,5-trimethoxyphenyl)-1,3,5-triazine-2,4-diamine]: the viability at 10 µM in data set [1] (72 h, MTT) was determined as 14%; in data set [2], 37%; in data set [3], 62%. In addition, the GI50 is 1 ± 0.01 nM in data set [1] (setting [8]); 2 nM in data set [1] (setting [9]); 210 ± 10 nM in data set [2]; above 20000 nM in data set [3]; above 20000 nM in data set [4]; 5 ± 0.1 nM in data set [5] (Homo sapiens, MDA-MB-231, MDA-MB231, 24 h, read-out: GI50 ± SD, 24 h). The GI50 in data set [5] (Homo sapiens, MDA-MB-231, MDA-MB231, 48 h, read-out: GI50 ± SD, 48 h) came out at 4 ± 0.3 nM; in data set [5] (setting [11]) it was 1 ± 0.02 nM. The “fold more active than methotrexate” value in data set [1] (MDA-MB231) stood at 10 fold. Further, in data set [1] (MDA-MB231), the “fold more potent than nilotinib” value is on record as 40 fold. In addition, the inhibition at 0.125 µM in data set [5] (setting [10]) stood at 15%. For the same compound, the IC20 in data set [5] (setting [12]) was 2.5 nM. In data set [5] (setting [12]), this compound registered an IC50 of 5 nM. Further, the “growth inhibition at 125 nM, 12 h” value in data set [5] (12 h) was “no significant inhibition of the cell growth”. In the data set on MDA-MB231 cells [6], the “cell morphology, AO/PI double staining” value is reported as “signs of apoptosis”. Further, the “morphological changes in live cell imaging” value in the data set on MDA-MB231 cells [7] is “inducing apoptosis”.
As to `COc1cc(-c2nc(N)nc(Nc3ccc(C(C)C)cc3)n2)cc(OC)c1OC` [Compound 21, N ^2-(4-Isopropylphenyl)-6-(3,4,5-trimethoxyphenyl)-1,3,5-triazine-2,4-diamine], the melting point fell in the range of 190 to 192 °C. Also, the viability at 10 µM in data set [1] (72 h, MTT) was 9%. Besides, the GI50 in data set [1] (setting [8]) was 40 ± 2 nM. The GI50 in data set [1] (setting [9]) was 39.8 nM. In data set [2], the viability at 10 µM was 42% and the GI50 was determined as 1100 ± 50 nM. For the same compound, in data set [3], the viability at 10 µM was 49% and the GI50 came to 10700 ± 1100 nM. In addition, in data set [4], the GI50 was above 20000 nM.
